Reference: patent US20250034167A1, “HETEROCYCLIC COMPOUNDS AND METHODS OF USE” (AMGEN INC., priority 2021, published 2025)
Read-outs that look alike come from different tables or passages of the source.

Assays:
[1] = molecular target: T1, His-tagged KRAS G12D protein (Homo sapiens, UniProt P01116, G12D); experiment: biochemical
Experimental: (§1) The plate was incubated for 30 minutes at room temperature. Biotinylated KRPep-2d substrate (Amgen) was diluted to nM in Assay Buffer and 2 μL was added to all wells and incubated for 1 hour at room temperature. Detection Reagent (0.4 nM LANCE Eu-W1024 Anti-6×His (Perkin Elmer AD0401), 5 nM streptavidin-d2 (Cisbio 610SADLA)) was prepared in Assay Buffer, then 4 µL was added to the plate and incubated for 1 hour at room temperature.

[2] = test system: Phosphorylation of ERK1/2 in AsPC-1 cells; experiment: Phospho-ERK1/2 MSD Assay; type: cell-based
Experimental: Sixteen hours prior to compound treatment, AsPC-1 cells were seeded in 96-well cell culture plates at a density of 25,000 cells/well and incubated at 37° C., 5% CO2. A compound dose-response titration was diluted in growth media, added to appropriate wells of a cell culture plate, and then incubated at 37° C., 5% CO2 for 2 hours.

[3] = molecular target: T1, His-tagged KRAS G12D protein
Experimental: as §1

[4] = Homo sapiens, ASPC1, 2 h, read-out: 2 h p-ERK (AsPC-1 cells), IC50, AsPC-1 cells, 2 h compound treatment

T1 sequence (P01116 1-188 isoform P01116-2 G12D): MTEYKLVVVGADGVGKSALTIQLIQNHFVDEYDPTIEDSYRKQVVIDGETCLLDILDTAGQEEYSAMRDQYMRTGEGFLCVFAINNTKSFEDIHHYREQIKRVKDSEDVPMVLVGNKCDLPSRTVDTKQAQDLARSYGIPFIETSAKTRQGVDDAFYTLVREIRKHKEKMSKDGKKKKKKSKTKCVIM

Row | SMILES | IC50 [1] [µM] | IC50 [2, 4] [µM] | IC50 [3] [µM] | IC50 ([2]; read-out: 2 h p-ERK (AsPC-1 cells), IC50, AsPC-1 cells, 2 h compound treatment) [µM]
1 | CCc1c(F)ccc2cc(O)cc(-c3ncc4c(N5CCC[C@@H](C(=O)OC)C5)nc(OC[C@@]56CCCN5C[C@H](F)C6)nc4c3F)c12 [Example 126, Methyl (R)-1-(7-(8-ethyl-7-fluoro-3-hydroxynaphthalen-1-yl)-8-fluoro-2-(((2R,7aS)-2-fluorotetrahydro-1H-pyrrolizin-7a(5H)-yl)methoxy)pyrido[4,3-d]pyrimidin-4-yl)piperidine-3-carboxylate] | 0.037 | 3.34 |  | 
2 | CCc1c(F)ccc2cc(O)cc(-c3ncc4c(N5CCCC(C#N)CC5)nc(OC[C@@]56CCCN5C[C@H](F)C6)nc4c3F)c12 (single isomer, unassigned) [Example 55] |  |  | 0.003 | 0.259
3 | CCc1c(F)ccc2cc(O)cc(-c3ncc4c(N5CCC[C@@H](S(N)(=O)=O)C5)nc(OC[C@@]56CCCN5C[C@H](F)C6)nc4c3F)c12 [Example 1, (R)-1-(7-(8-Ethyl-7-fluoro-3-hydroxynaphthalen-1-yl)-8-fluoro-2-(((2R,7aS)-2-fluorotetrahydro-1H-pyrrolizin-7a(5H)-yl)methoxy)pyrido[4,3-d]pyrimidin-4-yl)piperidine-3-sulfonamide] | 0.001 | 0.165 |  | 
4 | C[C@@]1(O)CCCN(c2nc(OC[C@@]34CCCN3C[C@H](F)C4)nc3c(F)c(-c4cc(O)cc5cccc(F)c45)ncc23)C1 [Example 57, (R)-1-(8-Fluoro-7-(8-fluoro-3-hydroxynaphthalen-1-yl)-2-(((2R,7aS)-2-fluorotetrahydro-1H-pyrrolizin-7a(5H)-yl)methoxy)pyrido[4,3-d]pyrimidin-4-yl)-3-methylpiperidin-3-ol] | 0.002 | 0.115 |  | 
5 | CCc1c(F)ccc2cc(O)cc(-c3ncc4c(N5C[C@@H](O)[C@@H](O)C5)nc(OC[C@@]56CCCN5C[C@H](F)C6)nc4c3F)c12 [Example 11, (3S,4R)-1-(7-(8-Ethyl-7-fluoro-3-hydroxynaphthalen-1-yl)-8-fluoro-2-(((2R,7aS)-2-fluorotetrahydro-1H-pyrrolizin-7a(5H)-yl)methoxy)pyrido[4,3-d]pyrimidin-4-yl)pyrrolidine-3,4-diol] | 0.003 | > 10 |  | 
6 | CCc1c(F)ccc2cc(O)cc(-c3ncc4c(N5CCCCC[C@H]5C)nc(OC[C@@]56CCCN5C[C@H](F)C6)nc4c3F)c12 [Example 80, 5-Ethyl-6-fluoro-4-(8-fluoro-2-(((2R,7aS)-2-fluorotetrahydro-1H-pyrrolizin-7a(5H)-yl)methoxy)-4-((R)-2-methylazepan-1-yl)pyrido[4,3-d]pyrimidin-7-yl)naphthalen-2-ol] | 0.002 | 0.253 |  | 
7 | CCc1c(F)ccc2cc(O)cc(-c3ncc4c(N5CC(CC(N)=O)C5)nc(OC[C@@]56CCCN5C[C@H](F)C6)nc4c3F)c12 [Example 8, 2-(1-(7-(8-Ethyl-7-fluoro-3-hydroxynaphthalen-1-yl)-8-fluoro-2-(((2R,7aS)-2-fluorotetrahydro-1H-pyrrolizin-7a(5H)-yl)methoxy)pyrido[4,3-d]pyrimidin-4-yl)azetidin-3-yl)acetamide] | 0.082 | > 10 |  | 
